PubChem BioAssay (NCI)
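1) Cells in 96-well plates. 2) Compound, 48 h, 5 concentrations. 3) Linear interpolation between surrounding doses. 4) Unreached endpoint = highest concentration. The concentration for 50% growth inhibition is given as GI50. TGI denotes the concentration required for complete inhibition of growth.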

Legend:
Test in all cases: DTP human tumour cell line panel, 48 h
OVCAR-8 ovarian = system: OVCAR-8 ovarian
SNB-19 CNS = system: SNB-19 CNS
NCI/ADR-RES ovarian = system: NCI/ADR-RES ovarian
UO-31 renal = system: UO-31 renal
NCI-H460 lung = system: NCI-H460 lung
MDA-MB-435 = system: MDA-MB-435
U251 CNS = system: U251 CNS
EKVX NSCLC = system: EKVX NSCLC
OVCAR-4 ovarian = system: OVCAR-4 ovarian
HCC-2998 colon = system: HCC-2998 colon
MOLT-4 leukemia = system: MOLT-4 leukemia
PC-3 prostate = system: PC-3 prostate
SN12C renal = system: SN12C renal
LOX IMVI melanoma = system: LOX IMVI melanoma

Structure (SMILES)	TGI (OVCAR-8 ovarian) [µM]	TGI (SNB-19 CNS) [µM]	TGI (NCI/ADR-RES ovarian) [µM]	TGI (UO-31 renal) [µM]	TGI (NCI-H460 lung) [µM]	TGI (MDA-MB-435) [µM]	TGI (U251 CNS) [µM]	TGI (EKVX NSCLC) [µM]	TGI (OVCAR-4 ovarian) [µM]	TGI (HCC-2998 colon) [µM]	TGI (MOLT-4 leukemia) [µM]	TGI (PC-3 prostate) [µM]	TGI (SN12C renal) [µM]	TGI (LOX IMVI melanoma) [µM]	GI50 (NCI/ADR-RES ovarian) [µM]	GI50 (NCI-H460 lung) [µM]	GI50 (EKVX NSCLC) [µM]	GI50 (OVCAR-4 ovarian) [µM]	GI50 (MOLT-4 leukemia) [µM]
CCOc1ccc(/C=C2\N=C(c3ccccc3)OC2=O)cc1	> 100	> 100	> 100	> 100	> 100	> 100	> 100	> 100	> 100	> 100	> 100	> 100	–	–	–	–	–	–	–
C/C(=N/NC(=O)c1ccncc1)C(F)(F)F	> 100	> 100	> 100	> 100	–	> 100	> 100	–	–	> 100	> 100	> 100	> 100	–	–	–	–	–	–
NCCCCCC(CCN)SCC1OC(n2cnc3c(N)ncnc32)C(O)C1O (stereo unspecified)	> 1500	> 1500	> 1500	> 1320	> 1500	–	> 1500	> 1500	> 1500	> 1500	> 1500	–	> 1180	> 1500	–	–	–	–	–
COc1cccc2c1C(=O)c1c(O)c3c(c(O)c1C2=O)C[C@@](O)(C(=O)CO)CC3OC1CC(N(C)CCOCC(OC(C)=O)OC(C)=O)C(O)C(C)O1 (stereo partly specified)	> 0.01	> 0.01	–	> 0.01	> 0.01	–	> 0.01	> 0.01	> 0.01	> 0.01	> 0.01	–	> 0.01	> 0.01	–	–	–	–	–
COC(=O)/C=C1\SC2(OC1=Nc1ccccc1)C1CC3CC(C1)CC2C3 (stereo unspecified)	> 100	> 100	> 100	> 100	> 100	> 100	> 100	> 100	> 100	–	> 100	> 100	> 100	> 100	–	–	–	–	–
C[N+]1(C)C2CC(OC(=O)C(CO)c3ccccc3)CC1C1OC12 (stereo unspecified)	> 100	> 100	> 100	> 100	–	> 100	> 100	> 100	> 100	–	> 100	> 100	> 100	> 100	–	–	–	–	–
O=C1c2cc(Br)ccc2-c2ccc3c4ccc5c6c(ccc(c7ccc1c2c73)c64)C(=O)c1cc(Br)ccc1-5	> 100	> 100	> 100	> 100	> 100	> 100	> 100	> 100	–	> 100	–	> 100	> 100	> 100	–	–	–	–	–
CC(=O)CCC#Cc1ccccc1C(=O)C(C)=[N+]=[N-]	> 100	> 100	–	> 100	> 100	–	> 100	> 100	> 100	> 100	85.4	–	> 100	> 100	–	–	–	–	–
O=C1C=CC2(C=C1)O[C@H](COCc1ccccc1)[C@@H](COCc1ccccc1)O2	1.28	12.3	3.71	2.91	37.2	5.51	4.02	3.66	4.66	–	15.1	4.74	3.6	3.51	–	–	–	–	–
COc1ccc(-c2cc(N3CCN(c4ccc(Cl)cc4)CC3)c(C#N)c(=O)o2)cc1	19.1	23.8	–	30.5	28.9	–	58.2	41.7	5.07	> 100	–	–	> 100	> 100	–	–	–	–	–
O=C(O)c1ccccc1CN1CCCC(C(=O)O)C1 (stereo unspecified)	> 100	> 100	> 100	> 100	> 100	> 100	> 100	> 100	> 100	–	> 100	> 100	> 100	> 100	–	–	–	–	–
CC[C@@H]1/C=C/C=C/C[C@H](C)[C@@H](O)[C@@H](C)C(=O)[C@H](C)[C@@H](O)[C@H](C)C(=O)[C@H](C)[C@@H](O)[C@H](C)/C=C/C(=O)O[C@H]2[C@@H](C)[C@@H](CC1)O[C@@]1(CC[C@@H](C)[C@@H](CC(C)O)O1)[C@@H]2C (stereo partly specified)	> 25	> 25	> 19.1	–	> 22.2	> 18.3	> 25	7.44	> 19.3	8.52	7.65	12.3	9.9	> 25	–	–	–	–	–
CN1C2CCC1/C(=C/c1cccc3c1OCO3)C(=O)/C2=C\c1cccc2c1OCO2	> 100	–	–	> 100	> 100	–	63.4	> 100	–	> 100	> 100	–	> 100	> 100	–	–	–	–	–
Cc1cccc2cc(/C=C/C(=O)/C=C/c3ccc(Cl)cc3)c(=O)[nH]c12	–	–	> 100	–	> 100	–	–	> 100	> 100	–	> 100	–	–	–	> 100	> 100	> 100	> 100	5.69
NC(Cc1ccc(CP(=O)(O)O)cc1)C(=O)O (stereo unspecified)	> 100	> 100	> 100	> 100	> 100	> 100	> 100	> 100	> 100	> 100	> 100	> 100	> 100	> 100	–	–	–	–	–
Fc1ccc(Nc2nc(Cl)c3[nH]cnc3n2)cc1Cl	> 100	> 100	> 100	33.5	> 100	> 100	> 100	> 100	> 100	> 100	> 100	> 100	> 100	> 100	–	–	–	–	–
O=C(O)C(Cc1cc(I)c(O)c(I)c1)C1CCCCC1 (stereo unspecified)	> 100	> 100	> 100	> 100	46	> 100	54.6	> 100	> 100	76.9	76.2	41.5	> 100	> 100	–	–	–	–	–
C=C=C[P+](c1ccccc1)(c1ccccc1)c1ccccc1	> 100	–	–	> 100	45.7	–	14.3	–	> 100	> 100	16.2	–	17.8	–	–	–	–	–	–
CCOC(=O)CC1=N/C(=N/C(=N)N[N+](=O)[O-])SC1	> 100	> 100	–	> 100	> 100	–	> 100	> 100	> 100	> 100	–	–	> 100	> 100	–	–	–	–	–
NC(N)=N/N=C\c1c(-c2cccc([N+](=O)[O-])c2)nc2sccn12	–	–	> 100	37.7	78.7	5.16	–	56.2	3.78	5.38	5	29	4.89	–	–	–	–	–	–
Nc1ccccc1N	> 100	> 100	–	> 100	> 100	–	> 100	–	> 100	> 100	> 100	–	> 100	> 100	–	–	–	–	–
